The NIST ThermoML archive (doi:10.1016/j.jct.2017.03.006)

Experiment: xn = mol fraction of the nth substance listed
Conditions: 313.15 K, Liquid; for viscosity: Concentric cylinders viscometry; for mass density: Vibrating tube method

Cc1ccc(C)c(C)c1 [1,2,4-trimethylbenzene] + CCC(C)O
Conditions	mass density [kg/m3]	viscosity [mPa·s]
100 kPa, x2 = 0	859	–
100 kPa, x2 = 0.1	852.6	–
100 kPa, x2 = 0.1989	846.6	–
100 kPa, x2 = 0.3011	840.2	–
100 kPa, x2 = 0.4002	834	–
100 kPa, x2 = 0.5001	827.5	–
100 kPa, x2 = 0.5298	–	0.773
100 kPa, x2 = 0.5997	820.6	–
100 kPa, x2 = 0.6001	–	0.84
100 kPa, x2 = 0.6999	813.4	–
100 kPa, x2 = 0.7001	–	0.94
100 kPa, x2 = 0.7997	–	1.09
100 kPa, x2 = 0.7999	806	–
100 kPa, x2 = 0.9	797.9	–
100 kPa, x2 = 0.9001	–	1.35
1000 kPa, x2 = 0	859.7	–
1000 kPa, x2 = 0.1	853.3	–
1000 kPa, x2 = 0.1989	847.2	–
1000 kPa, x2 = 0.3011	840.9	–
1000 kPa, x2 = 0.4002	834.7	–
1000 kPa, x2 = 0.5001	828.2	–
1000 kPa, x2 = 0.5997	821.3	–
1000 kPa, x2 = 0.6999	814.2	–
1000 kPa, x2 = 0.7999	806.7	–
1000 kPa, x2 = 0.9	798.7	–
2000 kPa, x2 = 0	860.4	–
2000 kPa, x2 = 0.1	854.1	–
2000 kPa, x2 = 0.1989	848	–
2000 kPa, x2 = 0.3011	841.7	–
2000 kPa, x2 = 0.4002	835.6	–
2000 kPa, x2 = 0.5001	829.1	–
2000 kPa, x2 = 0.5997	822.2	–
2000 kPa, x2 = 0.6999	815	–
2000 kPa, x2 = 0.7999	807.6	–
2000 kPa, x2 = 0.9	799.6	–
5000 kPa, x2 = 0	862.6	–
5000 kPa, x2 = 0.1	856.3	–
5000 kPa, x2 = 0.1989	850.3	–
5000 kPa, x2 = 0.3011	844.1	–
5000 kPa, x2 = 0.4002	838	–
5000 kPa, x2 = 0.5001	831.5	–
5000 kPa, x2 = 0.5997	824.6	–
5000 kPa, x2 = 0.6999	817.5	–
5000 kPa, x2 = 0.7999	810.1	–
5000 kPa, x2 = 0.9	802.1	–
10000 kPa, x2 = 0	866	–
10000 kPa, x2 = 0.1	860	–
10000 kPa, x2 = 0.1989	854.1	–
10000 kPa, x2 = 0.3011	847.9	–
10000 kPa, x2 = 0.4002	841.7	–
10000 kPa, x2 = 0.5001	835.4	–
10000 kPa, x2 = 0.5997	828.5	–
10000 kPa, x2 = 0.6999	821.5	–
10000 kPa, x2 = 0.7999	814.2	–
10000 kPa, x2 = 0.9	806.2	–
15000 kPa, x2 = 0	869.3	–
15000 kPa, x2 = 0.1	863.5	–
15000 kPa, x2 = 0.1989	857.6	–
15000 kPa, x2 = 0.3011	851.5	–
15000 kPa, x2 = 0.4002	845.4	–
15000 kPa, x2 = 0.5001	839.1	–
15000 kPa, x2 = 0.5997	832.3	–
15000 kPa, x2 = 0.6999	825.3	–
15000 kPa, x2 = 0.7999	818	–
15000 kPa, x2 = 0.9	810.1	–
20000 kPa, x2 = 0	872.6	–
20000 kPa, x2 = 0.1	866.8	–
20000 kPa, x2 = 0.1989	861	–
20000 kPa, x2 = 0.3011	854.9	–
20000 kPa, x2 = 0.4002	848.9	–
20000 kPa, x2 = 0.5001	842.6	–
20000 kPa, x2 = 0.5997	835.9	–
20000 kPa, x2 = 0.6999	829	–
20000 kPa, x2 = 0.7999	821.7	–
20000 kPa, x2 = 0.9	813.8	–
30000 kPa, x2 = 0	878.7	–
30000 kPa, x2 = 0.1	873.2	–
30000 kPa, x2 = 0.1989	867.5	–
30000 kPa, x2 = 0.3011	861.5	–
30000 kPa, x2 = 0.4002	855.6	–
30000 kPa, x2 = 0.5001	849.4	–
30000 kPa, x2 = 0.5997	842.8	–
30000 kPa, x2 = 0.6999	835.8	–
30000 kPa, x2 = 0.7999	828.6	–
30000 kPa, x2 = 0.9	820.8	–
40000 kPa, x2 = 0	884.5	–
40000 kPa, x2 = 0.1	879.2	–
40000 kPa, x2 = 0.1989	873.5	–
40000 kPa, x2 = 0.3011	867.6	–
40000 kPa, x2 = 0.4002	861.7	–
40000 kPa, x2 = 0.5001	855.8	–
40000 kPa, x2 = 0.5997	849	–
40000 kPa, x2 = 0.6999	842.2	–
40000 kPa, x2 = 0.7999	835	–
40000 kPa, x2 = 0.9	827.3	–
50000 kPa, x2 = 0	889.9	–
50000 kPa, x2 = 0.1	884.8	–
50000 kPa, x2 = 0.1989	879.3	–
50000 kPa, x2 = 0.3011	873.4	–
50000 kPa, x2 = 0.4002	867.5	–
50000 kPa, x2 = 0.5001	861.6	–
